Target: T1, human COX-2 (Homo sapiens, UniProt P35354)
T1 construct: purchased Cayman Chemical, Ann Arbor, Mich
T1 sequence (P35354 18-604): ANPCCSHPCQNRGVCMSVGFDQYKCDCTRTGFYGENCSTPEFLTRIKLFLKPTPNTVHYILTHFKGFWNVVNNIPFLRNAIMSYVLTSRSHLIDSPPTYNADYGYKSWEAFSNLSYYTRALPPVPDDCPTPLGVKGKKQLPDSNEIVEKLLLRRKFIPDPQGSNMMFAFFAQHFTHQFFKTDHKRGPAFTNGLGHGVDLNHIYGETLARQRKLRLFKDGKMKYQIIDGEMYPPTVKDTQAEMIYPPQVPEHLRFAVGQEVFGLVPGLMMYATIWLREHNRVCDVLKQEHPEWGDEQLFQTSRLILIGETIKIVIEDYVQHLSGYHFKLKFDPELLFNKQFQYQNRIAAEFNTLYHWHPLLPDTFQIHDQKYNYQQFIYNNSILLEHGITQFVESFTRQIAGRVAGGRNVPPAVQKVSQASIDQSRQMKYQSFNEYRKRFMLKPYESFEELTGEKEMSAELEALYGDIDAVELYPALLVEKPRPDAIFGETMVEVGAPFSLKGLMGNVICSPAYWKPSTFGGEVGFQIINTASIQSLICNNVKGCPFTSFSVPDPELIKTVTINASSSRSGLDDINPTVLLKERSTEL
Experiment: Assay for human COX-2 activity (COX Inhibitor Screening Assay, Cayman)
Format: biochemical
Conditions: human COX-2, at 10 μM
Protocol: The human COX-1 and COX-2 activities and the measurement of the prostaglandin products synthesized were performed using the COX Inhibitor Screening Assay (Cayman Chemical, Ann Arbor, Mich., which also contained the Prostaglandin Screening EIA Kit, used for prostaglandin quantification). The test compounds were dissolved at 50 times the highest final reaction concentration in DMSO or any other suitable solvent as stock solutions. These stock solutions were then diluted in the same solvent. Eight glass test tubes (13×100 mm) were placed in a 25° C. water bath. To each test tube was added 950 μL of reaction buffer (0.1 M Tris-HCl, pH 8.0, containing 5 mM EDTA, and 2 mM phenol), 10 μL of 100 µM heme solution, and 10 μL (5 units) of either human COX-1 or COX-2 and the resulting mixture incubated with the enzyme for 2 minutes. Twenty μL of the solvent was added to one tube (100% initial activity or solvent control) and 20 μL of each dilution of the test compound was added to one tube each. Each tube was vortexed immediately after the addition. The enzyme was incubated with the inhibitor for 20 minutes at 25° C. The enzymatic reaction was then initiated by the addition of 10 μL of freshly prepared 10 mM arachidonic acid (neutralized with KOH), vortexed and then incubated for 2 minutes (or, in some cases as indicated, 30 seconds) at 37° C. The reaction was terminated by the addition of 50 μL of 1 M HCl, vortexed and placed at room temperature. One hundred microliters of a saturated stannous chloride solution (50 mg/mL of 0.1 M HCl) was added and the reaction mixture was allowed to stand at room temperature for at least 5 min.
The prostaglandins (PG) produced in the reactions were assayed, after a 2,000-fold dilution, using the Prostaglandin Screening EIA Kit (Cayman Chemical, Ann Arbor, Mich.). The assay contains an antibody with broad specificity for all the prostaglandin families (PGF, PGE, PGD, and thromboxane B-type) synthesized in the COX-1/COX 2 reactions. The synthesized prostaglandin competes with a PG-tagged acetylcholine esterase tracer for binding to the PG antibody. Binding of synthesized PG lowers the colorimetric development of the Ellman's Reagent (computed as % B/B0). The actual amount of synthesized PG was interpolated from a standard curve using known amounts of supplied prostaglandin E2 (PGE2) (PGE2 concentration vs. % B/B0). The data generated were the mean±standard deviation of triplicate wells in the EIA for a single reaction at a given inhibitor concentration.

NS(=O)(=O)c1ccc(-c2c(-c3ccccc3)noc2CO[N+](=O)[O-])cc1 [Example 2b, 4-(5-((Nitrooxy)methyl)-3-phenylisoxazol-4-yl)benzenesulfonamide]
inhibition at 10 µM: 100%

Source: patent US7166618B2, “Nitrosated and nitrosylated cyclooxygenase-2 inhibitors, compositions and methods of use” (NitroMed, Inc., priority 1999, dated 2007)
